From US20180118721A1, “PYRIMIDINE DERIVATIVES” (Merck Patent GmbH, priority 2015, published 2018)
pIC50: −log10 of the molar value.

How the values were obtained:
[1] = molecular target: T1, purified human recombinant MTH1 (human MTH1, residues 42-197) (Homo sapiens, UniProt P36639); experiment: MTH1 enzymatic assay (luminescence-based, PPiLight); format: biochemical
T1 construct: human MTH1, residues 42-197, Uniprot-ID: P36639, expressed in E. coli; made in house; host or cells: E. coli

[2] = Microsomal stability (intrinsic clearance), human; format: in vitro ADME; conditions: human liver microsomes, 0.5 mg/ml protein, Clint
Text: (§1) A microsomal stability assay is used to measure in vitro clearance (Clint). The assay involves measuring the rate of disappearance of a compound due to its intrinsic attitude to be metabolized (“intrinsic” meaning that the disappearance is not affected by other properties like permeability, binding etc. that play a role when quantifying in vivo clearance). The microsomal stability (intrinsic clearance, Clint) and thus metabolic stability is generally given as μl/min/mg protein. It can be visualized as the volume of solution that 1 mg of microsomes is able to clear of the compound in one minute.
(§2) A Tecan Genesis workstation (RSP 150/8) was used for to perform the microsomal incubations. Analysis was carried out using a Waters ACQUITY UPLC system coupled to an ABSciex API3000 mass spectrometer. Data analysis was performed using Assay Explorer (Symyx).
(§3) Column: Acquity UPLC BEH C18, 2.1×50 mm, 1.7 μm (Waters) Mobile phases: A=0.1% formic acid in water; B=acetonitrile
(§4) Flow rate: 0.750 mL/min; Detection: ESI, MRM; Injection: 10 μL; Column temperature: 50° C.
(§5) • Potassium phosphate buffer: 0.05 M potassium phosphate buffer pH 7.4 containing 1 mM MgCl2 • NADPH (nicotinamide adenine dinucleotide phosphate): 22.5 mg NADPH-Na4 in 1.8 ml potassium phosphate buffer • Acetonitrile: 50 Vol % acetonitrile (1 volume acetonitrile, 1 volume water) • DMSO: 20 Vol % DMSO in water • Stock solution of 20 mg/ml human or mouse liver microsomes (protein)/ml in phosphate buffer • Stock solution of 10 mM compound in 100% DMSO
(§6) Dilution of test compounds was done in 2 steps starting from a 10 mM stock solution of the respective compound in 100% DMSO. First 4 μl stock solution was added to 196 μl of 20 Vol % DMSO. In a second step, 10 μl of the first dilution were added to 1590 μl potassium phosphate buffer to achieve a final concentration of 1.25 μM in the final compound dilution. Thus, the amount of organic solvent in the assay was kept to a minimum (<1%).
(§7) The human or mouse liver microsome (protein) solution to be used in the assay was prepared by mixing 750 μl stock solution (20 mg/ml) and 2250 μl potassium phosphate buffer to a final concentration of 5 mg/ml.
(§8) Incubation was carried out on a 96 deep well incubation plate. 160 μl per well of the final compound dilution were transferred onto the incubation plate. Four samples of each compound dilution were assayed. 20 μl/well liver microsome solution was added to each well and the samples were then preincubated for 5 min at 37° C. and 800 rpm agitation. Two reference compounds (verapamil and dextromethorphan) were used in parallel in every experiment and for each species (human or mouse microsomes) to ensure system performance and for comparison.
(§9) On a separate stop plate, 160 μl acetonitrile were added per well.
(§10) After preincubation, i.e. at time t1=0 minutes, 18 μl samples of incubated compound solution and were transferred and added per well (containing acetonitrile) on the stop plate to prevent a reaction (0 minutes control samples, 4 samples per compound). Equally, 18 μl samples of incubated reference compound solution were transferred and added per well (containing acetonitrile) on the stop plate at time t1=0 minutes and again after 30 minutes (t4), solubility and chemical stability of the compound were checked. […]

[3] = Shake flask solubility measurement; format: physicochemical; conditions: aqueous buffer, thermodynamic from solid, phosphate buffer pH 7.4, 37° C.
Procedure: Compound solubility in aqueous solution is determined by a standard method in the art, the shake flask method. Solubility measurement is performed under equilibrium conditions at pH 7.4. Samples are prepared by dissolving an excess of the test compound in a phosphate buffer (made up of 3,954 g sodium hydrogenphosphate-monohydrate, 6,024 g sodium chloride, 950 ml ultrapure water and adjusted to pH 7.4 with 0.1 M NaOH or 0.1 M HCl). These samples are shaken at 37° C. with 450 rpm (shaker: TiMix control Bühler) for 24 h in total until equilibrium is reached. After 7 hours shaking, the pH value of the sample is controlled and adjusted, if necessary. It is also checked that the sample (test compound) is available in excess. Shortly before the end of 24 h, samples are checked again for pH and precipitate. At the end of 24 h and after separation of the solid by filtration, the concentration of the compound in the filtrate is determined by liquid chromatography using […] (LC-UV).
Sample preparation: Incubation hood: TH 15 Bühler; pH device 766 Calimatic Knick; pH electrode InLab 423 Mettler
Chromatography Conditions:
Column: Chromolith RP18e 100×3 mm
Wavelength range: 190-400 nm • select a suitable evaluation wavelength
Injection volume: Probe 5 μl and 15 μl; Standard 5 μl
Column stove temperature: 37° C.
Eluent A: water/formic acid (999:1; v/v)
Eluent B: acetonitrile/formic acid (999:1; v/v)

[4] = Microsomal stability (intrinsic clearance), mouse; format: in vitro ADME; conditions: mouse liver microsomes, 0.5 mg/ml protein, Clint
Text: as §1, §2, §3, §4, §5, §6, §7, §8, §9, §10

[5] = 6 μM 8-oxo-dGTP, Table 1, grouped

| pIC50 [1, 5] | pIC50 ([1]; Table 2) | Microsomal stability human [2] [μl/min/mg prot.] | solubility at 24 h [3] [µg/mL] | Microsomal stability mouse [4] [μl/min/mg prot.] | SMILES |
| --- | --- | --- | --- | --- | --- |
| > 9.00 | > 9.00 | <10 | > 1000 | 43 | CNc1cc(N2CCC(F)(F)C2)nc(N)n1 [Example 3, 6-(3,3-difluoro-pyrrolidin-1-yl)-N^4-methyl-pyrimidine-2,4-diamine] |
| 7.00 to 9.00 | 8.15 | <10 | > 1000 | 13 | NC(=O)C1CCN(c2cc(NC3CC3)nc(N)n2)C1 (centres unmarked) [Example 5, 1-(2-amino-6-cyclopropylamino-pyrimidin-4-yl)-pyrrolidine-3-carboxylic acid amide-formate] |
| 7.00 to 9.00 | 8.89 | <10 | > 1000 | <10 | CNc1cc(N2CCC(O)C2)nc(N)n1 (centres unmarked) [Example 7, 1-(2-amino-6-methylamino-pyrimidin-4-yl)-pyrrolidin-3-ol-formate] |
| 7.00 to 9.00 | 8.70 | <10 | > 1000 | <10 | CNc1cc(N2CCC[C@@H]2CO)nc(N)n1 [Example 8, [(R)-1-(2-amino-6-methylamino-pyrimidin-4-yl)-pyrrolidin-2-yl]-methanol-formate] |
